Measurements reported in patent publication US7282486B2, “Crystal forms of azithromycin” (Pfizer Inc, priority 2001, dated 2007).
One block for each compound: values may come before it.

Columns and labels:
[1] = Dehydration/desolvation temperatures determined by DSC; format: physicochemical; settings: DSC analysis at 5° C./min from 30-300° C.
Experimental: Dehydration/desolvation temperatures were determined by DSC with a heating rate of 5° C./min.

[2] = Heating of form A: variable temperature powder X-ray diffraction (VT-PXRD) and TGA; format: physicochemical

- broad endotherm (decomposition) [1]: 200-280 °C
SMILES: CCC1OC(=O)C(C)C(O[C@H]2C[C@@](C)(OC)[C@@H](O)C(C)O2)C(C)[C@@H](OC2OC(C)CC(N(C)C)[C@H]2O)[C@@](C)(O)C[C@@H](C)CN(C)[C@H](C)[C@@H](O)[C@]1(C)O (stereo partly shown) [Form D, azithromycin monohydrate monocyclohexane solvate]

- weight loss by TGA ([2]; at 90° C.): about 2.5 weight %
- temperature of solid-state conversion of form A to form L ([2]; heating, VT-PXRD): about 90 °C
SMILES: CC[C@H]1OC(=O)[C@H](C)[C@@H](O[C@H]2C[C@@](C)(OC)[C@@H](O)[C@H](C)O2)[C@H](C)[C@@H](O[C@@H]2O[C@H](C)C[C@H](N(C)C)[C@H]2O)[C@](C)(O)C[C@@H](C)CN(C)[C@H](C)[C@@H](O)[C@]1(C)O [Form A, azithromycin dihydrate]

- stability of form when cooled to ambient temperature ([2]; cooled to ambient temperature after heating form A to about 90° C.): rapidly reverts to form A
SMILES: CCC1OC(=O)C(C)C(O[C@H]2C[C@@](C)(OC)[C@@H](O)C(C)O2)C(C)[C@@H](OC2OC(C)CC(N(C)C)[C@H]2O)C(C)(O)C[C@@H](C)CN(C)[C@H](C)[C@@H](O)[C@]1(C)O (stereo in doubt) [Form L]
